pIC50: −log10 of the molar value. ≈ marks a conversion by molar mass, not a printed value.
Key:
Integrin alpha-V/beta-3 [1] = target: T1, Integrin alpha-V/beta-3 (Homo sapiens, UniProt P05106+P06756); assay: Inhibition of integrin alphavbeta3 (unknown origin) by fluorescence polarization assay
Integrin alpha-V/beta-5 [2] = target: T2, Integrin alpha-V/beta-5 (Homo sapiens, UniProt P06756+P18084); assay: Inhibition of integrin alphavbeta5 (unknown origin) by fluorescence polarization assay
Homo sapiens = species: Homo sapiens; assay: Selectivity ratio of IC50 for inhibition of integrin alphavbeta3 (unknown origin) to IC50 for inhibition of integrin alphavbeta5 (unknown origin)
[3] = Lipophilicity, log D of compound by chromatographic method; type: physicochemical
[4] = Solubility of the compound by CAD method; type: physicochemical
[5] = Passive permeability of compound in MDCK cells; type: ADME, cell-based, Canis lupus familiaris; details: dog, read-out: permeability
[6] = Clearance in human microsomes assessed per gram tissue; type: ADME, Microsome
[7] = Clearance in human hepatocytes assessed per gram tissue; type: ADME, cell-based, Hepatocyte
[8] = Clearance in rat microsomes assessed per gram tissue; type: ADME, Microsome
[9] = Clearance in rat hepatocytes assessed per gram tissue; type: ADME, cell-based, Hepatocyte
[10] = Clearance in human microsomes based well stirred model; type: ADME, Microsome
[11] = Clearance in human hepatocytes based well stirred model; type: ADME, cell-based, Hepatocyte
[12] = Clearance in rat microsomes based well stirred model; type: ADME, Microsome
[13] = Clearance in rat hepatocytes based well stirred model; type: ADME, cell-based, Hepatocyte
Integrin alpha-V/beta-3 [14] = target: T1, Integrin alpha-V/beta-3; assay: Inhibition of human alphavbeta3 integrin stably expressed in human K562 cells assessed as inhibition of cell adhesion to GST-LAP1 incubated for 30 mins by BCECF-AM staining based fluorescence assay
Integrin alpha-V/beta-5 [15] = target: T2, Integrin alpha-V/beta-5; assay: Inhibition of human alphavbeta5 integrin stably expressed in human K562 cells assessed as inhibition of cell adhesion to vitronectin incubated for 30 mins by BCECF-AM staining based fluorescence assay
Integrin alpha-V/beta-1 = Integrin alpha-V/beta-1 (Homo sapiens, UniProt P05556+P06756); assay: Inhibition of integrin alphavbeta1 (unknown origin) by fluorescence polarization assay; type: protein-complex assay
Integrin alpha-V/beta-6 = Integrin alpha-V/beta-6 (Homo sapiens, UniProt P06756+P18564); assay: Inhibition of integrin alphavbeta6 (unknown origin) by fluorescence polarization assay; type: protein-complex assay
Integrin alpha-V/beta-8 = Integrin alpha-V/beta-8 (Homo sapiens, UniProt P06756+P26012); assay: Inhibition of integrin alphavbeta8 (unknown origin) by fluorescence polarization assay; type: protein-complex assay
Sequence of Integrin alpha-V/beta-8 (P06756 31-889 limits assumed): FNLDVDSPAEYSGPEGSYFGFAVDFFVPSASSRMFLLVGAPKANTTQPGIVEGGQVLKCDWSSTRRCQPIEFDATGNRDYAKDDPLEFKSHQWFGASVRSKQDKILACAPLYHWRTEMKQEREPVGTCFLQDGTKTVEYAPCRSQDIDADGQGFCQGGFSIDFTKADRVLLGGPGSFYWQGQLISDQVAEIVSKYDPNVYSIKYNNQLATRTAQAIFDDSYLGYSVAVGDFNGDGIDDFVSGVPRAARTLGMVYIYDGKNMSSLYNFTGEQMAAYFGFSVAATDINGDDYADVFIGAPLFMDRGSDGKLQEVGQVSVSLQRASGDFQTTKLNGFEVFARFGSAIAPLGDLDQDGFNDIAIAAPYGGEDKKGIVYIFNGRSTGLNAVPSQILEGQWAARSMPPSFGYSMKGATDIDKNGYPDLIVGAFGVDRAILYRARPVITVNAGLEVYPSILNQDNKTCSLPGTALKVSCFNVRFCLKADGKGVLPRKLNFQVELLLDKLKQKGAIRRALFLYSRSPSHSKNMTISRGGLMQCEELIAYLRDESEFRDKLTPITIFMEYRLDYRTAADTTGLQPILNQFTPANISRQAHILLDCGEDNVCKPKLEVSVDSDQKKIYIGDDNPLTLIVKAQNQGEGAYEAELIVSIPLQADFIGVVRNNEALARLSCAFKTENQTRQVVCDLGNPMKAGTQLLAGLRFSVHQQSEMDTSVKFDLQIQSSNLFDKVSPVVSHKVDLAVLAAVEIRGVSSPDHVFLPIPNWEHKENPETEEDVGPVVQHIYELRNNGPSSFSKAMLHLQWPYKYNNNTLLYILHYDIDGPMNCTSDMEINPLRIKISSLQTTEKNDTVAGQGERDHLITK
Sequence of Integrin alpha-V/beta-8 (P06756 891-1048 limits assumed): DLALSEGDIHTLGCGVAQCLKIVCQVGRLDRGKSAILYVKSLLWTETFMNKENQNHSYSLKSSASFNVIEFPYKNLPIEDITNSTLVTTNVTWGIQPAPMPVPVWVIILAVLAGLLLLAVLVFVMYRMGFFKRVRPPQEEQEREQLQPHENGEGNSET
Sequence of Integrin alpha-V/beta-8 (P26012 43-769 limits assumed): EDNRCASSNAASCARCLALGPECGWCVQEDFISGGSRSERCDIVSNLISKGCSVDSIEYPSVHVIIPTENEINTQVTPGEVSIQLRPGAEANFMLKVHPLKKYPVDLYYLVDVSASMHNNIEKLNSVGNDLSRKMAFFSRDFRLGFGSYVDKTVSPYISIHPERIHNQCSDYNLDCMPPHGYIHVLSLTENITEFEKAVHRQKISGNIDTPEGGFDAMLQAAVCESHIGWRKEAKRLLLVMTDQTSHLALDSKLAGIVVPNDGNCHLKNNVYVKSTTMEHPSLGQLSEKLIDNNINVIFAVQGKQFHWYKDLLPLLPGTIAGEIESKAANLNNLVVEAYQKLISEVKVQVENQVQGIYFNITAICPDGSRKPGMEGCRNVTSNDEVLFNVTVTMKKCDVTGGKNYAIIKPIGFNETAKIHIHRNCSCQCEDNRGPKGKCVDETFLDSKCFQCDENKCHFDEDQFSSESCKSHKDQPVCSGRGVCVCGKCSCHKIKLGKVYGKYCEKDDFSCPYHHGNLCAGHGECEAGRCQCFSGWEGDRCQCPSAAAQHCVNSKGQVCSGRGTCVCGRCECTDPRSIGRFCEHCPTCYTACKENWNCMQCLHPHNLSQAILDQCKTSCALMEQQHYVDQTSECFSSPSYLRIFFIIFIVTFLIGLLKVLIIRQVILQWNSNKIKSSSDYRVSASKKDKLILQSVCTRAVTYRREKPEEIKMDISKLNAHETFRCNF

T1 sequence (P05106 27-788 limits assumed): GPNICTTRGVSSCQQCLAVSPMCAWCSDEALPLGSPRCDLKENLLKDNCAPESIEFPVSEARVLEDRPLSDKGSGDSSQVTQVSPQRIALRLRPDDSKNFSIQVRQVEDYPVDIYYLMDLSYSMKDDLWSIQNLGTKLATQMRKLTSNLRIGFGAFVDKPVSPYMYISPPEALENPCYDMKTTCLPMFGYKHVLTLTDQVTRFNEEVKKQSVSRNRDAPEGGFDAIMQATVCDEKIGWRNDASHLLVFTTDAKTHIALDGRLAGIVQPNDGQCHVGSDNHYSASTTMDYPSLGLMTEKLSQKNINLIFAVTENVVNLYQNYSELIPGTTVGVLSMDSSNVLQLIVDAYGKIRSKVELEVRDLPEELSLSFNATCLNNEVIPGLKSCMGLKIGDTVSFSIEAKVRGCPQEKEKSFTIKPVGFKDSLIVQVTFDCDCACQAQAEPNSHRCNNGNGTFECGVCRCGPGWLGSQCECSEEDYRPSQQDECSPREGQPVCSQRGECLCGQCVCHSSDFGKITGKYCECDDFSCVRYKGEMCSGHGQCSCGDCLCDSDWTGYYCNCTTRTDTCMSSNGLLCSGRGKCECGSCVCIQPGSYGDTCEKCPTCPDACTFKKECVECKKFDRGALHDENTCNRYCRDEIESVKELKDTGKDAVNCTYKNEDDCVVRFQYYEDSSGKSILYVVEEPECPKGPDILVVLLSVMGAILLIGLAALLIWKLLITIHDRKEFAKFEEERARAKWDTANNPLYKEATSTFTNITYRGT
T1 sequence (P06756 31-889 limits assumed): as the sequence (P06756 31-889 limits assumed) above
T1 sequence (P06756 891-1048 limits assumed): as the sequence (P06756 891-1048 limits assumed) above
T2 sequence (P06756 31-889 limits assumed): as the sequence (P06756 31-889 limits assumed) above
T2 sequence (P06756 891-1048 limits assumed): as the sequence (P06756 891-1048 limits assumed) above
T2 sequence (P18084 24-799 limits assumed): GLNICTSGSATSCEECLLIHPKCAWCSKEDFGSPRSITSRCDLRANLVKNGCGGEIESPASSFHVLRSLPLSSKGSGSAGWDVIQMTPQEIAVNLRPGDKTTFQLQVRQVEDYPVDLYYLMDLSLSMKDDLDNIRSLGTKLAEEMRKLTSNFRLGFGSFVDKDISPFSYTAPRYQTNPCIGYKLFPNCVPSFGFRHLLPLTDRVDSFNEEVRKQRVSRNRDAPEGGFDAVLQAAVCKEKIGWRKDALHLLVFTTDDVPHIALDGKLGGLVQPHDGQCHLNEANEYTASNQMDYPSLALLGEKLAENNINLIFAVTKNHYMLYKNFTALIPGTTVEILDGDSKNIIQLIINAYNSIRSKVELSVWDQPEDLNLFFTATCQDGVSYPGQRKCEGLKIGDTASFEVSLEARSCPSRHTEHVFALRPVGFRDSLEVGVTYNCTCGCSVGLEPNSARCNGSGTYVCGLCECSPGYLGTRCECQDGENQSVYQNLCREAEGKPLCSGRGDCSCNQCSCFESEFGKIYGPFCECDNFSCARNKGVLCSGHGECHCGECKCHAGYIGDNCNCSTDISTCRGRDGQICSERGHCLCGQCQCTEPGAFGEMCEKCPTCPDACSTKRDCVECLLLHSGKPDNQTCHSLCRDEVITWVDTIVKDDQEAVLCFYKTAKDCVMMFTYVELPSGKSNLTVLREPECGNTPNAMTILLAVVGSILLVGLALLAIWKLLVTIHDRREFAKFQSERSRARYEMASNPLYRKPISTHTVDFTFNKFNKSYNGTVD
Sequence of Integrin alpha-V/beta-1 (P05556 21-798 limits assumed): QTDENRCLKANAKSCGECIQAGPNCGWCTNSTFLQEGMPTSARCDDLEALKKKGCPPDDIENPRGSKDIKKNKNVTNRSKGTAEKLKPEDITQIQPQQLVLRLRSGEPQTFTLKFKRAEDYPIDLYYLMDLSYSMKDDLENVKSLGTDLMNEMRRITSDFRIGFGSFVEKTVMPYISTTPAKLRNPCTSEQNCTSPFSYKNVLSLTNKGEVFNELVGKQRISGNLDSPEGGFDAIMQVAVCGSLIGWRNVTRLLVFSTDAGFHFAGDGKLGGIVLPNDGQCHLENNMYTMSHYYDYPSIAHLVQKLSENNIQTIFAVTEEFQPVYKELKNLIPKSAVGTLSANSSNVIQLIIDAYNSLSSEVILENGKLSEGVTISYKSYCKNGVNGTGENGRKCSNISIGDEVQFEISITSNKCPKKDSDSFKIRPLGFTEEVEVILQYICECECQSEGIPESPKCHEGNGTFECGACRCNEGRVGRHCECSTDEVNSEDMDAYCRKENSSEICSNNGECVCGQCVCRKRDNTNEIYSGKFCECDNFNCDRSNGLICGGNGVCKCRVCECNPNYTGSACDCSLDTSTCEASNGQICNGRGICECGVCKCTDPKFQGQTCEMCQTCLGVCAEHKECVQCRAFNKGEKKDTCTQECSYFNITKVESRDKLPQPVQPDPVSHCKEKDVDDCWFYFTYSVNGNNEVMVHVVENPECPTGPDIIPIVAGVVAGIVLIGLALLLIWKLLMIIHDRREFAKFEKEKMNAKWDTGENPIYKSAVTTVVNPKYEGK
Sequence of Integrin alpha-V/beta-1 (P06756 31-889 limits assumed): as the sequence (P06756 31-889 limits assumed) above
Sequence of Integrin alpha-V/beta-1 (P06756 891-1048 limits assumed): as the sequence (P06756 891-1048 limits assumed) above

Structure (SMILES) | pIC50 (Integrin alpha-V/beta-3 [1]) | pIC50 (Integrin alpha-V/beta-5 [2]) | Ratio IC50 (Homo sapiens) | further results
O=C(O)C[C@H](C(=O)N1CC[C@@H](CCc2ccc3c(n2)NCCC3)C1)c1cccc(C2=CCCC2)c1 | 5.90 | 8.10 | 160 | –
O=C(O)C[C@H](C(=O)N1CC(CCc2ccc3c(n2)NCCC3)C1)c1ccccc1 | 5.50 | 7.60 | 125 | –
N#Cc1cccc([C@H](CC(=O)O)C(=O)N2CC[C@@H](CCc3ccc4c(n3)NCCC4)C2)c1 | 6.30 | 8.50 | 160 | chromatographic logD [3]: 3.69; solubility [4]: 192 µg/mL (≈ 444 µM); Papp [5]: 5.7 ×10⁻⁶ cm/s; clearance [6]: < 0.4 mL/min/g; CLH [7]: < 0.45 mL/min/g; clearance [8]: < 0.46 mL/min/g; CLH [9]: 1.4 mL/min/g; clearance [10]: < 6 mL/min/kg; CLH [11]: < 7 mL/min/kg; clearance [12]: < 14 mL/min/kg; CLH [13]: 30 mL/min/kg
O=C(O)C[C@H](C(=O)N1CC[C@@H](CCc2ccc3c(n2)NCCC3)C1)c1cc(Br)cs1 | 6.50 | 8.50 | 100 | –
O=C(O)C[C@H](C(=O)N1CC[C@@H](CCc2ccc3c(n2)NCCC3)C1)c1cccc(C2CC2)c1 | 5.20 | 8.10 | 800 | pIC50 (Integrin alpha-V/beta-3 [14]): < 5.00; pIC50 (Integrin alpha-V/beta-5 [15]): 6.50
C=C(C)c1cccc([C@H](CC(=O)O)C(=O)N2CC[C@@H](CCc3ccc4c(n3)NCCC4)C2)c1 | 5.60 | 8.30 | 500 | pIC50 (Integrin alpha-V/beta-3 [14]): < 5.00; pIC50 (Integrin alpha-V/beta-5 [15]): 6.50
O=C(O)C[C@H](C(=O)N1CC[C@@H](CCc2ccc3c(n2)NCCC3)C1)c1cc(Br)cc(Br)c1 | 5.80 | 8.30 | 320 | –
O=C(O)C[C@@H](C(=O)N1CC[C@@H](CCc2ccc3c(n2)NCCC3)C1)c1cccc(Br)c1 | 5.00 | 5.70 | 5 | –
Cc1csc([C@H](CC(=O)O)C(=O)N2CC[C@@H](CCc3ccc4c(n3)NCCC4)C2)c1 | 6.20 | 8.50 | 200 | –
CN(CCCCc1ccc2c(n1)NCCC2)C(=O)[C@@H](CC(=O)O)c1ccccc1 | 5.30 | 6.70 | 25 | –
O=C(O)C[C@H](C(=O)N1CC[C@@H](CCc2ccc3c(n2)NCCC3)C1)c1ccccc1 | 6.00 | 8.40 | 250 | pIC50 (Integrin alpha-V/beta-1): 5.40; pIC50 (Integrin alpha-V/beta-6): < 4.10; pIC50 (Integrin alpha-V/beta-8): < 4.10
O=C(O)C[C@H](C(=O)N1CC[C@@H](CCc2ccc3c(n2)NCCC3)C1)c1ccc(Br)s1 | 6.70 | 8.00 | 20 | –
O=C(O)CCn1ccc2cc(OCCCNc3ccccn3)ccc21 | 6.60 | 7.40 | 6 | –
Cc1cc(C)cc([C@H](CC(=O)O)C(=O)N2CC[C@@H](CCc3ccc4c(n3)NCCC4)C2)c1 | 5.40 | 8.00 | 400 | pIC50 (Integrin alpha-V/beta-3 [14]): < 5.00; pIC50 (Integrin alpha-V/beta-5 [15]): 6.30
O=C(O)C[C@H](C(=O)N1CC[C@@H](CCc2ccc3c(n2)NCCC3)C1)c1cccc(-c2ccccc2)c1 | 5.70 | 8.20 | 320 | –
O=C(O)C[C@H](C(=O)N1CC[C@@H](CCc2ccc3c(n2)NCCC3)C1)c1cccc(Br)c1 | 6.10 | 8.40 | 200 | –

Structure (SMILES) | pIC50 (Integrin alpha-V/beta-3 [1]) | pIC50 (Integrin alpha-V/beta-5 [2]) | Ratio IC50 (Homo sapiens) | further results
O=C(O)C[C@H](C(=O)N1CC[C@@H](CCc2ccc3c(n2)NCCC3)C1)c1ccccc1Br | 4.90 | 5.90 | 10 | –
CNc1cccc(CCOc2ccc3c(ccn3CCC(=O)O)c2)n1 | 7.40 | 8.00 | 4 | –
O=C(O)C[C@H](C(=O)N1CC[C@@H](CCc2ccc3c(n2)NCCC3)C1)c1ccsc1 | 6.30 | 8.40 | 125 | –
Cc1ccc([C@H](CC(=O)O)C(=O)N2CC[C@@H](CCc3ccc4c(n3)NCCC4)C2)s1 | 6.80 | 8.20 | 25 | –
O=C(O)C[C@H](C(=O)N1CC[C@@H](CCc2ccc3c(n2)NCCC3)C1)c1cccc(C2CCCC2)c1 | 5.60 | – | 200 | –
O=C(O)C[C@H](C(=O)N1CC[C@@H](CCc2ccc3c(n2)NCCC3)C1)c1cccc(C(F)(F)F)c1 | 5.30 | – | 800 | pIC50 (Integrin alpha-V/beta-3 [14]): < 5.00; pIC50 (Integrin alpha-V/beta-5 [15]): 6.10; chromatographic logD [3]: 5.05; solubility [4]: 141 µg/mL (≈ 297 µM); Papp [5]: 29.5 ×10⁻⁶ cm/s; clearance [6]: < 0.4 mL/min/g; CLH [7]: < 0.45 mL/min/g; clearance [8]: < 0.46 mL/min/g; CLH [9]: 14.3 mL/min/g; clearance [10]: < 6 mL/min/kg; CLH [11]: < 7 mL/min/kg; clearance [12]: < 14 mL/min/kg; CLH [13]: 68 mL/min/kg
O=C(O)C[C@H](C(=O)N1CC[C@@H](CCc2ccc3c(n2)NCCC3)C1)c1ccc(Br)cc1 | 5.90 | 8.20 | 200 | –
O=C(O)C[C@H](C(=O)N1CC[C@@H](CCc2ccc3c(n2)NCCC3)C1)c1cccc(N2CCNCC2)c1 | 5.80 | 7.80 | 100 | –
O=C(O)C[C@H](C(=O)N1CCCC(CCc2ccc3c(n2)NCCC3)C1)c1ccccc1 (some centres not stated) | 5.20 | 6.30 | 13 | –
O=C(O)C[C@H](C(=O)N1CC[C@@H](CCc2ccc3c(n2)NCCC3)C1)c1cccc(O)c1 | 6.80 | 8.40 | 40 | –
O=C(O)C[C@H](C(=O)N1CC(CCCc2ccc3c(n2)NCCC3)C1)c1ccccc1 | 6.10 | 8.10 | 100 | –
O=C(O)C[C@H](C(=O)N1CC[C@@H](CCc2ccc3c(n2)NCCC3)C1)c1cccc(Cl)c1 | 6.00 | 8.60 | 400 | pIC50 (Integrin alpha-V/beta-3 [14]): 5.20; pIC50 (Integrin alpha-V/beta-5 [15]): 6.90
Cc1cccc([C@H](CC(=O)O)C(=O)N2CC[C@@H](CCc3ccc4c(n3)NCCC4)C2)c1 | 5.80 | 8.40 | 400 | pIC50 (Integrin alpha-V/beta-3 [14]): 5.20; pIC50 (Integrin alpha-V/beta-5 [15]): 7.10; chromatographic logD [3]: 4.16; solubility [4]: 142 µg/mL (≈ 337 µM); Papp [5]: 17.6 ×10⁻⁶ cm/s; clearance [6]: < 0.4 mL/min/g; CLH [7]: < 0.45 mL/min/g; clearance [8]: < 0.46 mL/min/g; CLH [9]: 3.2 mL/min/g; clearance [10]: < 6 mL/min/kg; CLH [11]: < 7 mL/min/kg; clearance [12]: < 14 mL/min/kg; CLH [13]: 46 mL/min/kg
O=C(O)C[C@H](C(=O)N1CC[C@@H](CCc2ccc3c(n2)NCCC3)C1)c1cccc(N2CCOCC2)c1 | 5.70 | 7.90 | 160 | –
CN1CCN(c2cccc([C@H](CC(=O)O)C(=O)N3CC[C@@H](CCc4ccc5c(n4)NCCC5)C3)c2)CC1 | 5.90 | 8.00 | 125 | –
O=C(O)C[C@H](C(=O)N1CC[C@@H](CCc2ccc3c(n2)NCCC3)C1)c1cccs1 | 6.10 | 8.30 | 160 | –
